What was measured:
MDR1 = test: Apparent passive permeability across apical to basolateral side in MDCK2 cells expressing MDR1 at 3 uM after 60 mins by mass spectroscopy; assay type: ADME, cell-based, Canis lupus familiaris, MDCK-II; details: dog, MDCK-MDR1
D(4) dopamine receptor = target: T1, D(4) dopamine receptor (Homo sapiens, UniProt P21917); test: Displacement of [3H]N-methylspiperone from human dopamine D4 receptor expressed in HEK293 cell membranes after 1 hr by scintillation counting method
T1 sequence (P21917 whole entry): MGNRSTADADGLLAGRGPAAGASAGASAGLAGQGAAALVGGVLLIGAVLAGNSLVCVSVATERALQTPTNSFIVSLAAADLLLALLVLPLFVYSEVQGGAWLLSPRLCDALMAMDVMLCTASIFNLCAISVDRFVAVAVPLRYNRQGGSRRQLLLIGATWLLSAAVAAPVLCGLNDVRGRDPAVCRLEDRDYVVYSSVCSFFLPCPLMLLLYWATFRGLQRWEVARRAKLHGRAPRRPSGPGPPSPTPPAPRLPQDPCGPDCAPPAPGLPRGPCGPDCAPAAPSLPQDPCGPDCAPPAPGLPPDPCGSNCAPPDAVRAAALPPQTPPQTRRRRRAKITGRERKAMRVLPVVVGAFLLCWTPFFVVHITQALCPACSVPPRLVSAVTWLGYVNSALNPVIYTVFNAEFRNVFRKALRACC

[1] = target: T2, Muscarinic acetylcholine receptor M1 (Homo sapiens, UniProt P11229); test: Displacement of [3H]NMS from human muscarinic M1 receptor expressed in CHO cell membranes after 2 hrs by liquid scintillation counting method
T2 sequence (P11229 whole entry): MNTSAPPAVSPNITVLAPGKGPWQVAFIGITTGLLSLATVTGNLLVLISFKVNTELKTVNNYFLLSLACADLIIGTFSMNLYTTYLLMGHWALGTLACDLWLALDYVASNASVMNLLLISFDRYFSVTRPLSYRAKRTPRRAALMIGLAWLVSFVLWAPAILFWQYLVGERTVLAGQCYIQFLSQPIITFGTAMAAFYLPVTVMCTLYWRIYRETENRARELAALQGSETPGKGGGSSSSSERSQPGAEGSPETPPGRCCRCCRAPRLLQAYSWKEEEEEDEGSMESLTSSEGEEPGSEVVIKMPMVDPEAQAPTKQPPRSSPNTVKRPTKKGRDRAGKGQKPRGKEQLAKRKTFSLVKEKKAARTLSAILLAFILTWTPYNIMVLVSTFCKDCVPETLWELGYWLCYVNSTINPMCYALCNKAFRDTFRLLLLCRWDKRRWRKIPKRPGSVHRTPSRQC

[2] = target: T3, Muscarinic acetylcholine receptor M4 (Homo sapiens, UniProt P08173); test: Displacement of [3H]NMS from human muscarinic M4 receptor expressed in CHO cell membranes after 2 hrs by liquid scintillation counting method
T3 sequence (P08173 whole entry): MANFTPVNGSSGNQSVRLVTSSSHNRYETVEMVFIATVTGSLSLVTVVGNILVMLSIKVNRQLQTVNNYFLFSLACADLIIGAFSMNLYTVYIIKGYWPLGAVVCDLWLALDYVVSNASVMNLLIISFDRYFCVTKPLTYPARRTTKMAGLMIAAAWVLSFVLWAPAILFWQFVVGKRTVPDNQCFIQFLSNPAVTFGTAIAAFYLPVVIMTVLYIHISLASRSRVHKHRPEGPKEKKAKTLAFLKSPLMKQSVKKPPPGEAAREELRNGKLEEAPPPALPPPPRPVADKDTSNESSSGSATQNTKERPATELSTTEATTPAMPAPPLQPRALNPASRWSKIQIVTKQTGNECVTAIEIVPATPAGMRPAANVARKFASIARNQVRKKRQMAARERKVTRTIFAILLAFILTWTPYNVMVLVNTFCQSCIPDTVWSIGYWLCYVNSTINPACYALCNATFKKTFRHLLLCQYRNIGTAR

[3] = target: T2, Muscarinic acetylcholine receptor M1; test: Agonist activity at human SP/Myc epitope-tagged muscarinic M1 receptor expressed in HEK293T cells assessed as RLuc8-fused Galphaq activation after 2 mins by BRET assay; assay type: cell-based, HEK-293T
[4] = target: T4, Muscarinic acetylcholine receptor M1 (Homo sapiens) (UniProt P11229); test: Agonist activity at human SP/Myc epitope-tagged muscarinic M1 receptor expressed in HEK293T cells assessed as RLuc8-fused Galphaq activation after 2 mins by BRET assay relative to carbachol; assay type: cell-based; details: HEK-293T
T4 sequence (whole entry): T2 sequence (P11229 whole entry)

D(2) dopamine receptor = D(2) dopamine receptor (Homo sapiens, UniProt P14416); test: Displacement of [3H]N-methylspiperone from human dopamine D2 receptor expressed in HEK293 cell membranes after 1 hr by scintillation counting method
Chain of D(2) dopamine receptor (P14416 whole entry): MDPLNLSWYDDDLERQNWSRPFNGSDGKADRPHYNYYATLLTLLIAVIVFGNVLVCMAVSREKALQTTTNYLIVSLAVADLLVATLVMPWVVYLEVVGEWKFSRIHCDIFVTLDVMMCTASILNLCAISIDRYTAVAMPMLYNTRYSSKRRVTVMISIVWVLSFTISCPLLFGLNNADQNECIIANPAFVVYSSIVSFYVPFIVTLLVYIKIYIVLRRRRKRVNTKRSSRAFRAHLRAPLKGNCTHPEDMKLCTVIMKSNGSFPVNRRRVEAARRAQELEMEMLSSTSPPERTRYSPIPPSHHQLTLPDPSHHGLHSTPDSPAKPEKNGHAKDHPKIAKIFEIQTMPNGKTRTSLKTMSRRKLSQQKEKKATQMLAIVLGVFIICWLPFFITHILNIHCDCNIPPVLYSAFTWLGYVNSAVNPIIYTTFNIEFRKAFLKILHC

[5] = target: Sodium-dependent dopamine transporter (Rattus norvegicus, UniProt P23977); test: Displacement of [3H]WIN 35,428 from DAT in Sprague-Dawley rat striatum after 120 mins by scintillation counting method
Chain of Sodium-dependent dopamine transporter (P23977 whole entry): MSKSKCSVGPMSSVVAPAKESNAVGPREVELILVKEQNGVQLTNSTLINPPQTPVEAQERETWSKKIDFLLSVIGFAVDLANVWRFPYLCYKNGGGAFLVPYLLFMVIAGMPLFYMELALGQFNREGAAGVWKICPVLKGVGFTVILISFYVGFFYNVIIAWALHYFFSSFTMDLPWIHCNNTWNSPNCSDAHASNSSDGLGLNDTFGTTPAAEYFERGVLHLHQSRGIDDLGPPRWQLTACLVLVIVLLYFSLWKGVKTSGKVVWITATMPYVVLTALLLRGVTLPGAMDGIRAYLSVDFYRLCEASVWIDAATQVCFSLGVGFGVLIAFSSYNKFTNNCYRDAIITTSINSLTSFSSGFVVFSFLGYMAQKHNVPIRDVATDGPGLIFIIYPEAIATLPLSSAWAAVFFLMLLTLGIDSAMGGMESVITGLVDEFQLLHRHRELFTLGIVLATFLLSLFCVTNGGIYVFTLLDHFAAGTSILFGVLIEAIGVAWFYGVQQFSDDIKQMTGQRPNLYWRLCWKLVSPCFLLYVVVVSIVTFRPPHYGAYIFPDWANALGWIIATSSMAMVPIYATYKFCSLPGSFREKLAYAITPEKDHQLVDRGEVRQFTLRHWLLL

[6] = Intrinsic clearance in mouse liver microsomes assessed per mg of protein at 0.5 uM preincubated for 30 mins followed by NADPH addition measured after 30 mins by HPLC-MS/MS method; assay type: ADME, microsome; details: read-out: CLH
[7] = target: T5, Alpha-1A adrenergic receptor (Homo sapiens, UniProt P35348); test: Displacement of [3H]prazosin from human recombinant alpha-1A adrenergic receptor expressed in CHO cell membranes after 30 mins by liquid scintillation counting method
T5 sequence (P35348 whole entry): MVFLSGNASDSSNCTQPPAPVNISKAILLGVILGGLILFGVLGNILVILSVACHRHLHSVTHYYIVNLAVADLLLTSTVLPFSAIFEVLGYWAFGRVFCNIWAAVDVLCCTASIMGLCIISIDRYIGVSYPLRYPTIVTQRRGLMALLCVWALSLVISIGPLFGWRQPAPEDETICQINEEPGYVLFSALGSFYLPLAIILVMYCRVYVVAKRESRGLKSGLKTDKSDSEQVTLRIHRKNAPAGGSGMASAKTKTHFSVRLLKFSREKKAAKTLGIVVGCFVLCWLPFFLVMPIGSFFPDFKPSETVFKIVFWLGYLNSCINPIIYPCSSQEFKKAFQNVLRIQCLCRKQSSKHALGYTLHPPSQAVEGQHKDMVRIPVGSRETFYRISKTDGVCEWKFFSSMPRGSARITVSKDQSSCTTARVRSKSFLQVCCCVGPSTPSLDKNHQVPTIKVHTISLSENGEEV

[8] = target: T6, Muscarinic acetylcholine receptor M4 (Homo sapiens) (UniProt P08173); test: Agonist activity at human SP/Myc epitope-tagged muscarinic M4 receptor expressed in HEK293T cells assessed as RLuc8-fused Galphaq activation after 2 mins by BRET assay relative to carbachol; assay type: cell-based; details: HEK-293T
T6 sequence (whole entry): T3 sequence (P08173 whole entry)

[9] = target: Sigma non-opioid intracellular receptor 1 (Cavia porcellus, UniProt Q60492); test: Displacement of [3H](+)-pentazocine from sigma1 receptor in Hartley guinea pig brain cortex after 120 mins by scintillation counting method
Chain of Sigma non-opioid intracellular receptor 1 (Q60492 whole entry): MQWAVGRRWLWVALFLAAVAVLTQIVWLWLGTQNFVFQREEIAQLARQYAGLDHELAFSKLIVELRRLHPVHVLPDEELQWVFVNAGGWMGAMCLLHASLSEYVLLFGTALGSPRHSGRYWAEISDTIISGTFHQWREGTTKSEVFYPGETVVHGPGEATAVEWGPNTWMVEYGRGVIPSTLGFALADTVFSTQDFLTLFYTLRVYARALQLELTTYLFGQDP

[10] = Half life in mouse liver microsomes at 0.5 uM preincubated for 30 mins followed by NADPH addition measured over 30 mins by HPLC-MS/MS method; assay type: ADME, microsome
[11] = target: Beta-2 adrenergic receptor (Homo sapiens, UniProt P07550); test: Displacement of [3H]CGP12177 from human recombinant beta2 adrenergic receptor expressed in HEK293 cell membranes after 90 mins by beta counting method
Chain of Beta-2 adrenergic receptor (P07550 whole entry): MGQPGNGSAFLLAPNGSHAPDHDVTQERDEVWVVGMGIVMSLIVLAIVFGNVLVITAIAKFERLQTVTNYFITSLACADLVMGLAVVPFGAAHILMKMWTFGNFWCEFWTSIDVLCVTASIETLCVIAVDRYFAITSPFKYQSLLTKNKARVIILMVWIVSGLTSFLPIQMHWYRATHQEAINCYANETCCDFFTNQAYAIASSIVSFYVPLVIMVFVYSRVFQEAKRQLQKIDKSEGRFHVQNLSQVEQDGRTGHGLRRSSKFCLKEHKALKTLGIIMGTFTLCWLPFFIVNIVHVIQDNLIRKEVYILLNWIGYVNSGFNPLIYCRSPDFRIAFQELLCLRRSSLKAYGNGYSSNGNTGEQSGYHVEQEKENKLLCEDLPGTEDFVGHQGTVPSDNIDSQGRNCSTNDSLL

O=C1CCc2ccccc2N1CCCN1CCC(Cc2ccccc2)CC1
Papp A→B at 1 h, 3 µM (MDR1): 10.9 ×10⁻⁶ cm/s
Ki (D(4) dopamine receptor): 1.26 nM
Ki [1]: 363 nM
Ki [2]: 724 nM
EC50 [3]: 186 nM
Emax [4]: 25%
Ki (D(2) dopamine receptor): 912 nM
Ki [5]: 447 nM
microsomal CLint at 0.5 µM [6]: 396 µL/min/mg
Ki [7]: 257 nM
Emax [8]: 24%
Ki [9]: 10 nM
half-life at 0.5 µM [10]: 3.5 min
Ki [11]: 9550 nM

O=C1CCc2ccccc2N1CCCN1CCN(c2ccccc2)CC1
Papp A→B at 1 h, 3 µM (MDR1): 16.2 ×10⁻⁶ cm/s
Ki (D(4) dopamine receptor): 2.88 nM
Ki [1]: 4270 nM
Ki [2]: 9330 nM
EC50 [3]: 646 nM
Emax [4]: 42%
Ki (D(2) dopamine receptor): 1100 nM
Ki [5]: 8710 nM
microsomal CLint at 0.5 µM [6]: 159 µL/min/mg
Ki [7]: 53.7 nM
Emax [8]: 17%
Ki [9]: 269 nM
half-life at 0.5 µM [10]: 8.71 min
Ki [11]: 35500 nM

— ChEMBL document CHEMBL4043296 (J Med Chem, 2018)
